Experimental data: patent US20100040552A1, “METHODS TO EVALUATE GLUCOCORTICOID RECEPTOR AGONISTS AND ANTAGONISTS FOR EFFECTS ON NEURON-LIKE CELLS” (ROSETTA INPHARMATICS LLC, priority 2005, published 2010)
One block for each compound: values may come before it.

Legend:
Glucocorticoid Receptor [1] = target: T1, Glucocorticoid Receptor (Homo sapiens, UniProt P04150); assay: Transactivation assay, A549 cells; type: cell-based
T1 sequence (P04150 1-777): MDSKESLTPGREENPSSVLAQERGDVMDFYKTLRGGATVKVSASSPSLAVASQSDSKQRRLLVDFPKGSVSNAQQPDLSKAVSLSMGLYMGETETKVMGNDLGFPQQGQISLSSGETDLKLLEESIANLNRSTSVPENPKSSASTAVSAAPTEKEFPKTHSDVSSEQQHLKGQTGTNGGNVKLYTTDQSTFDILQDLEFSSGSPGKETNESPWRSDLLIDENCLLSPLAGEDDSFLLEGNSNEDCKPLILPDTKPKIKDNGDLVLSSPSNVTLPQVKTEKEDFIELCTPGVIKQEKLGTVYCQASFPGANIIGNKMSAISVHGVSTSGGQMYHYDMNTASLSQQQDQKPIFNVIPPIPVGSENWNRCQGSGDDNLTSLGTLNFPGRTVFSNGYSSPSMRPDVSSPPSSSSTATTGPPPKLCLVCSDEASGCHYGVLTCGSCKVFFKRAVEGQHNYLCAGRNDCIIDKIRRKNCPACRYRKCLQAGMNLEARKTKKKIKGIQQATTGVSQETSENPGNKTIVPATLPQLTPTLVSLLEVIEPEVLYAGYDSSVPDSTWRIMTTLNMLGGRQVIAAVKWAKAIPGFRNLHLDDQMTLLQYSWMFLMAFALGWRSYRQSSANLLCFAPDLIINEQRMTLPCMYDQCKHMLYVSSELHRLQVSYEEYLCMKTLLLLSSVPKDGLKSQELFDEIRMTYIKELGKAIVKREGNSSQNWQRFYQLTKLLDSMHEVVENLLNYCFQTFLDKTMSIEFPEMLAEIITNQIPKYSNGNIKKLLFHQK

[2] = system: RGS2, RGS4 and Sult1a1 gene expression; assay: In vivo RT-PCR of rat caudate and raphe nucleus (Example 1)
Text: Cross-hatched bars represent RGS2 gene expression. Unhatched bars represent RGS4 gene expression. ** p=0.003. * p=0.001.
Cross-hatched bars represent Sult1a1 gene expression in the caudate nucleus. Unhatched bars represent Sult1a1 gene expression in the raphe nucleus. *p<0.001.

Glucocorticoid Receptor [3] = target: T1, Glucocorticoid Receptor; assay: Transactivation assay, MDA cells; type: cell-based; parameters: host or cells: MDA cells; conditions: maximal response
Glucocorticoid Receptor [4] = target: T1, Glucocorticoid Receptor; assay: Transrepression assay, COS cells; type: cell-based; parameters: host or cells: COS cells
[5] = target: T2, MR (mineralocorticoid receptor) (Homo sapiens, UniProt P08235); assay: MR binding study
T2 sequence (P08235 1-984): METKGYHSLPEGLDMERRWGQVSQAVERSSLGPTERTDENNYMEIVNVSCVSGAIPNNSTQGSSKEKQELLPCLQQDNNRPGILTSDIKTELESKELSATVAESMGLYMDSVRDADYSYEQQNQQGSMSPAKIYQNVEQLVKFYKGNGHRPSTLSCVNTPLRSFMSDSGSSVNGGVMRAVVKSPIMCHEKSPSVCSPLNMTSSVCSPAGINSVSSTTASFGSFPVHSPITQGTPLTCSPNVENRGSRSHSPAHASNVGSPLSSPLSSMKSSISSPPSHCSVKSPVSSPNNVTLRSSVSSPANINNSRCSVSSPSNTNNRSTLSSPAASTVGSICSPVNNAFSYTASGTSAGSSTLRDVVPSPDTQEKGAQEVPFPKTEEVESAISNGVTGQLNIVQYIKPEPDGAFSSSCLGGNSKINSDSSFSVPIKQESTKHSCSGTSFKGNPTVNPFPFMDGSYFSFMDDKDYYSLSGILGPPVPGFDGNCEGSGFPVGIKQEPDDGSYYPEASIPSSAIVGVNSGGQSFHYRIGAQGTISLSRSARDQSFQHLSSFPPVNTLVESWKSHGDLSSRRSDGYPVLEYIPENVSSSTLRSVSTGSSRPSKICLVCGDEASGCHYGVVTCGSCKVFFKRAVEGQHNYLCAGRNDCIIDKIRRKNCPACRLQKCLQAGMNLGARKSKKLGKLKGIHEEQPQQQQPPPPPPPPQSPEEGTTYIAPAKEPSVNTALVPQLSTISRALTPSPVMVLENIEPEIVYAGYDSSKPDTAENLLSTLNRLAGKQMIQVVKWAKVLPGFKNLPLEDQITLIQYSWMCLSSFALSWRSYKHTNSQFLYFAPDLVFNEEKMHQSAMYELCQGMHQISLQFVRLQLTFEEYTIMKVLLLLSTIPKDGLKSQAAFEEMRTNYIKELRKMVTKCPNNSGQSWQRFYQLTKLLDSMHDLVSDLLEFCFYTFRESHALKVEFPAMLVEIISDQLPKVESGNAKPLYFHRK
Text: The following abbreviations are used in Table II: MR, mineralocorticoid receptor; GR, glucocorticoid receptor; and PR, progesterone receptor.

A549 cells = assay: A549 cell molecular profiling experiment; type: cell-based; conditions: for Up-regulated genes in category DMSO (<0%) / Up-regulated genes in category Full (≧90%) / Up-regulated genes in category High (66.7-90%) / Up-regulated genes in category Low (0-33.3%) / Up-regulated genes in category Middle (33.3-66.7%): set of 1091 genes; for Down-regulated genes in category DMSO (<0%) / Down-regulated genes in category Full (≧90%) / Down-regulated genes in category High (66.7-90%) / Down-regulated genes in category Low (0-33.3%) / Down-regulated genes in category Middle (33.3-66.7%): set of 1249 genes
Glucocorticoid Receptor [6] = target: T1, Glucocorticoid Receptor; assay: Classification of effect on the glucocorticoid receptor; type: cell-based; parameters: host or cells: COS cells; conditions: as assessed by MDA and A549 transactivation and COS transrepression assays
CA77 cells [7] = assay: CA77 cell assay, real-time RT-PCR (TaqMan); type: cell-based, rat
Experimental: Assay: CA77 cells were plated into 96 well tissue culture dishes at a density of 8×10^4 cells per well in 200 μl of PM and the cultures maintained in a humidified air atmosphere (7.5% CO2) at 37° C. This media was aspirated after 24 hours and replaced with 200 μl of GM and the cultures incubated as before, for an additional 48 hours, at which time the cultures were at approximately 90% confluency.
For the evaluation of agonist activity, the GM was aspirated, replaced with 200 μl of fresh GM containing concentrations of a drug ranging from 0.1 nM to 10,000 nM in a 10-fold dilution series. Control wells of 0 nM drug in GM and 0.1% DMSO in GM were included in the series for each drug. Each drug concentration and the two controls were evaluated on 4 wells. The cultures were maintained in a humidified air atmosphere (7.5% CO2) at 37° C. for 24 hours.
Control wells of 0 nM drug in GM containing 250 nM corticosterone and 0.1% DMSO in GM (without corticosterone) were included in the series for each drug. Each drug concentration and the two controls were evaluated on 4 wells. The cultures were maintained in a humidified air atmosphere (7.5% CO2) at 37° C. for 24 hours.
Lysis of Cells and Isolation of mRNA: Two methods were employed for the lysis of the cells and the isolation of mRNA at the end of the 24-hour incubation with the drugs.
One method was the mRNA Catcher™ Method (using Kit number 37001, sold by Invitrogen Corporation). The GM was aspirated from the cells, the cell monolayer was washed once with PBS (product number 10010, sold by Invitrogen Corporation), and then the cells were lysed in 30 μl of the kit lysis buffer containing 1% β-ME for 5 minutes at room temperature. The lysates were snap frozen in the 96-well plate by placing the plate on dry ice pellets, and the plate was then stored at −80° C.
The lysates were thawed at room temperature and then transferred into individual wells in the mRNA Catcher™ plate. The plate was covered and incubated for 90 minutes at room temperature for RNA hybridization. […]

Sult1a1 = assay: In vivo Sult1a1 expression assay (Example 2); parameters: species or system rat; conditions: co-administered with dexamethasone
Experimental: Methods: […] […] The rats were sacrificed 6 hours after the final dose and the hippocampus, raphe and caudate nucleus were dissected and placed in […]® (Qiagen, Valencia, Calif.) for 24 hours. The tissue was then placed in a fresh tube and stored at -80 C. Total RNA was prepared using Trizol® (InVitrogen, Carlsbad, Calif.) using the manufacturer's standard protocol. The total RNA was DNase treated and cDNA was made using the methods described in Example 1 in connection with CA77 cell cDNA preparation.

CA77 cells [8] = assay: CA77 cell microarray profiling; type: cell-based, rat
Experimental: In order to reduce false positives, progesterone, estradiol, and aldosterone served as out-groups for non-specific effects. Samples were collected at both 6 hours and 24 hours after contacting the CA77 cells with a compound.

RGS2 and RGS4 mRNA = conditions: cited from earlier work

Structure (SMILES): C[C@H]1C[C@@H]2[C@H]([C@@H](O)C[C@@]3(C)[C@H]2CC[C@]3(O)C(=O)CO)[C@@]2(C)C=CC(=O)C=C12 [M-Prednisolone, 6α-methylprednisolone]
Transactivation, A549 Emax (Glucocorticoid Receptor [1]; maximal response): 124% | RGS4 expression in caudate nucleus ([2]; down-regulated): about 50 % of control levels | RGS2 expression in caudate nucleus ([2]; upregulated vs vehicle): 2 fold | Transactivation, MDA Emax (Glucocorticoid Receptor [3]): 104% | Transrepression, COS % Emax, 0.3 μM (Glucocorticoid Receptor [4]; 0.3 μM): 100% | Transrepression, COS % Emax, 1 uM (Glucocorticoid Receptor [4]; 1 uM): 100%

Structure (SMILES): CC#C[C@]1(O)CC[C@H]2[C@@H]3CCC4=CC(=O)CCC4=C3[C@@H](c3ccc(N(C)C)cc3)C[C@@]21C [RU-486, mifepristone]
Emax (Glucocorticoid Receptor [1]; A549, read-out: Transactivation, A549 Emax): 90% | Up-regulated genes in category DMSO (<0%) (A549 cells; 1 μm): 287 | Up-regulated genes in category Full (≧90%) (A549 cells; 1 μm): 38 | Up-regulated genes in category High (66.7-90%) (A549 cells; 1 μm): 63 | Up-regulated genes in category Low (0-33.3%) (A549 cells; 1 μm): 449 | Up-regulated genes in category Middle (33.3-66.7%) (A549 cells; 1 μm): 254 | Down-regulated genes in category DMSO (<0%) (A549 cells; 1 μm): 454 | Down-regulated genes in category Full (≧90%) (A549 cells; 1 μm): 41 | Down-regulated genes in category High (66.7-90%) (A549 cells; 1 μm): 70 | Down-regulated genes in category Low (0-33.3%) (A549 cells; 1 μm): 418 | Down-regulated genes in category Middle (33.3-66.7%) (A549 cells; 1 μm): 266 | Effect on up-regulation of RGS2, Sult1a1, IL6R and SGK by a GR agonist (CA77 cells [7]; CA77 cells, co-administered with dexamethasone): reversal of this effect | Effect on dexamethasone-induced Sult1a1 upregulation in the hippocampus (Sult1a1): reversal of this effect | Emax at 1 µM (Glucocorticoid Receptor [4]; COS, read-out: Transrepression, COS % Emax, 1 uM): 40% | Effect on the glucocorticoid receptor (degree of agonist activity) (Glucocorticoid Receptor [6]): low partial agonist activity

Structure (SMILES): C[C@]12CCC(=O)C=C1CC[C@@H]1[C@@H]2[C@@H](O)C[C@]2(C=O)[C@@H](C(=O)CO)CC[C@@H]12 [aldosterone]
Activity in the GR agonist signature at 6 hours (CA77 cells [8]; 6 hours): little or no activity | Presence of the GR agonist signature (CA77 cells [8]; response at 24 hours): weakly present

Structure (SMILES): O=C(CCCN1CCC(O)(c2ccc(Cl)cc2)CC1)c1ccc(F)cc1 [haloperidol]
RGS2 mRNA (RGS2 and RGS4 mRNA): up-regulated | RGS4 mRNA levels (RGS2 and RGS4 mRNA): down-regulation

Further lines, with some results ahead:

IC50 [5]: 0.98 nM | Effect on the glucocorticoid receptor (degree of agonist activity) (Glucocorticoid Receptor [6]): full agonist activity
Structure (SMILES): C[C@]12C=CC(=O)C=C1CC[C@@H]1[C@@H]2[C@@H](O)C[C@@]2(C)[C@H]1CC[C@]2(O)C(=O)CO [Prednisolone, prednisolone]
Up-regulated genes in category DMSO (<0%) (A549 cells; 100 nM): 0 | Up-regulated genes in category Full (≧90%) (A549 cells; 100 nM): 940 | Up-regulated genes in category High (66.7-90%) (A549 cells; 100 nM): 150 | Up-regulated genes in category Low (0-33.3%) (A549 cells; 100 nM): 0 | Up-regulated genes in category Middle (33.3-66.7%) (A549 cells; 100 nM): 1 | Down-regulated genes in category DMSO (<0%) (A549 cells; 100 nM): 0 | Down-regulated genes in category Full (≧90%) (A549 cells; 100 nM): 1140 | Down-regulated genes in category High (66.7-90%) (A549 cells; 100 nM): 109 | Down-regulated genes in category Low (0-33.3%) (A549 cells; 100 nM): 0 | Down-regulated genes in category Middle (33.3-66.7%) (A549 cells; 100 nM): 0

EC50 (CA77 cells [7]; Rattus norvegicus, CA77 cell assay): 250 nM
Structure (SMILES): C[C@]12C[C@H](O)[C@H]3[C@@H](CCC4=CC(=O)CC[C@@]43C)[C@@H]1CC[C@@H]2C(=O)CO [corticosterone]
